One assay has as its system platelets. The assay is described as follows: In vitro platelet aggregation (ADP-induced, washed platelets). The format is cell-based. The settings on record: Homo sapiens, washed platelets from healthy volunteers, agonist giving 60-70% aggregation, % inhibition of control ADP response. The method, then:
Platelet aggregation studies were performed according to a published method (Bednar, B., Condra, C., Gould, R. J., and Connolly, T. M., Throm. Res., 77:453-463 (1995). Platelet-rich plasma (PRP) concentrates prepared from healthy volunteers who were aspirin free for at least 7 days by venipuncture using ACD-A as anticoagulant was purchased from Biological Specialties, Inc. (Colmar, Pa.). PRP was centrifuged at 730 g for 15 min. The platelet pellet was washed twice in CGS buffer (13 mM sodium citrate, 30 mM glucose, 120 mM NaCl, pH 6.5) containing 1 μ/ml apyrase (grade V, Sigma-Aldrich, St. Louis, Mo.), 1 mM EGTA, and resuspended in Tyrode's buffer (140 mM NaCl, 2.7 mM KCl, 12 mM NaHCO3, 0.76 mM Na2HPO4, 5.5 mM dextrose, 5.0 mM Hepes, 0.2% BSA, pH 7.4). The platelets were diluted to 3×10^8 platelets/ml and kept >45 min at 37° C. before use. 105 μl of washed platelets, 2 mM CaCl2 and […] of fibrinogen were added to a 96-well microliter plate.
Platelet aggregation was initiated by the addition of serial concentrations of ADP (BioData Corp. Horsham, Pa.). Buffer was added to one set of control wells. The assay plate was stirred constantly and intermittently placed in a microplate reader (Softmax, Molecular Devices, Menlo Park, Calif.) to read optical density (650 nm) at 0 and 5 minutes after the addition of the compound solutions. Aggregation was calculated as the decrease in optical density between the time 0- and 5-min measurements and expressed as % of aggregation. For the inhibition assay, platelet aggregation was conducted as described above except for compound additions. Test compounds were prepared in 100% DMSO and stored.
On the day of the assay, test compounds were diluted in the buffer containing 3% of DMSO as a 10× working solution. 15 μl of compound solutions were added to 105 μl of platelets 5 min prior to the addition of CaCl2 and fibrinogen.

In another assay the target is T1, ADP P2Y12 receptor (Homo sapiens, UniProt Q9H244).
T1 construct: expressed in transfected cells
T1 sequence (Q9H244 whole entry): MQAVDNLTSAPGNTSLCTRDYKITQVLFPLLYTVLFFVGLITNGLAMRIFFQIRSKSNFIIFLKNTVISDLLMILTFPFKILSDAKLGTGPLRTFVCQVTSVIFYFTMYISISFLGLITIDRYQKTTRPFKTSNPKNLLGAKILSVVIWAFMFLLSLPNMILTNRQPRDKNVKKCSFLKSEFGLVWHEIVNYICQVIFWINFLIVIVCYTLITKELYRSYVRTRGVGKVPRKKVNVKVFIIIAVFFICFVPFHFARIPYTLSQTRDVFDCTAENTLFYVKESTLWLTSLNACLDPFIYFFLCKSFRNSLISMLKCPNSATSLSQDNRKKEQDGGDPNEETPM
The experiment in a line: FLIPR calcium assay transducing Gi-coupled signaling to the Gq pathway (inhibition of ADP-induced calcium mobilization). The following applies: HEK 293 cells co-transfected with P2Y12 and Gqi5, ADP at EC60-70 dose. Type of assay: cell-based. From the text:
A FLIPR Calcium Assay Transducing Gi-Coupled Signaling to the Gq Pathway
The ADP P2Y12 subtype is a Gi coupled GPCR, which mediates inhibition of adenylate cyclase leading to decreased cAMP while Gq proteins primarily activate phospholipase C, which stimulates inositol-1,4,5-triphosphate (IP3) formation and a subsequent increase in intracellular Ca^2+ concentration, which can be easily measured by FLIPR. Prior to the development of a method to convert a Gi coupled GPCR signaling to a Gq coupled GPCR signaling, a significant barrier existed for the functional testing and screening of Gi coupled GPCRs. One popular method, GTPγS migration, is slow, produces a small signal and generates radioactive waste. The discovery that a small switch in the amino acid sequence in the Gi protein could convert it to a protein mediating a Gq coupled response has led to the development of robust, high throughput assays for this valuable receptor subtype.
The FLIPR-based HTS assay transducing the Gi signaling to the Gq pathway is described below.
pcDNA3hygroP2Y12 containing a hygromycin resistance gene and pLEC1-Gqi5-HA containing a neomycin resistance gene (licensed from Molecular Devices, Sunnyvale, Calif.) were co-transfected into Human embryonic kidney (HEK) 293 cells with SuperFect (Qiagen, Valencia, Calif.). Cell clones were selected in the presence of 600 μg/ml hygromycin B (Life Technologies, Carlsbad, Calif.) and 1 mg/ml of G418 (Mediatech, Herndon, Va.). Drug resistant colonies were picked and screened by FLIPR and the gene expression was further confirmed by RT-PCR. Positive clones were maintained in growth medium (DMEM supplemented with 10% FBS, 1× p/s) containing 400 μg/ml of G418 and 200 μg/ml of hygromycin.
The day before the assay, cells are seeded in clear, flat-bottom black-wall, tissue culture treated polystyrene 96- or 384-well plates and incubated at 37° C., 5% CO2. 50 μl of complete dye loading solution (FLIPR Calcium Assay Kit, Molecular Devices) was added to each well containing 100 μl of culture media. The cells were incubated for at least 30 min at 37° C., in 5% CO2 before initiating the assay on the FLIPR. The agonist effect of ADP was tested and EC50 was determined prior to compound testing. The EC60-70 dose was used.
The antagonist compounds were prepared at 4× and the agonists were diluted at 5× the concentration desired in the test wells, and then aliquoted into the sample plates. The sample plates and the cell plate were placed in the FLIPR assay chamber. A first addition (50 μl) was made at the start of reading and a second addition (50 μl) was made after 5 min of reading. Raw fluorescence data was exported for each well and tabulated versus time within an ASCII file. Data was then imported into Excel and the peak response over the basal level was determined. The percent inhibition for each compound was calculated by the change in fluorescent density as a % inhibition of the control ADP response to obtain an IC50, as shown in Table 1 (wherein N/A means Not Applicable).

The next assay addresses T2, P2Y12 receptor (Homo sapiens, UniProt Q9H244).
T2 construct: expressed in transfected cells
The assay is described as follows: Whole cell receptor binding assay, 2-MeS[3H]-ADP. The settings on record: HEK 293 cells stably transfected with P2Y12; 2-MeS[3H]-ADP 3 nM; 30 min at 37° C.; read-out: Inhibition of Receptor Binding (IC50 μM). The procedure: A whole cell-binding assay for 2-MeS [^3H]-ADP (Custom synthesized by Amersham BioScience, Piscataway, N.J.) to the P2Y12 receptor was performed.
A P2Y12 cDNA containing hygromycin resistant gene was transfected in HEK 293 cells. A stable cell line was obtained by a cloning selection method. The cells were cultured in DMEM supplemented with 10% FBS and 1× of p/s.
On the day of the assay, the cells were harvested and resuspended in 0.25% BSA-DMEM and adjusted to a cell concentration of 1.6×10^6/ml. 15 μl of each compound was mixed with 120 μl of cell suspension in 96 well assay plates and incubated for 5 min prior to the addition of the radio-labeled ligand 2-MeS[^3H]-ADP (3 nM final in 0.25% BSA-DMEM) or unlabeled […] (for non-specific binding). The reaction was then incubated for 30 min at 37° C. and stopped by adding cold DMEM. The labeled and unlabeled cells were separated by a filtration method using a Packard Filtermate 196 on to the unfilter-96 GF/B plate. The plates were dyed in a 37° C. oven for 1-2 hours and 50 μl of MicroScint-20 (PerkinElmer) was added to each well. The radioactivity was measured using a TOPCOUNT beta counter (Packard). The percent inhibition for each compound was calculated by the change in radioactivity as a % inhibition of the control to obtain an IC50, as shown in Table 2.

From US7566722B2, “Triazolopyrimidine derivatives as ADP P2Y12 receptor antagonists” (Janssen Pharmaceutica, N.V., priority 2006, dated 2009) come the findings set out here.

Each structure is given as a SMILES string. Some results are limits rather than exact numbers.

T2 sequence (Q9H244 whole entry): as above

Consider `CCCSc1nc(NCCc2ccccc2)c2nnn([C@@H]3C[C@H](c4nnn[nH]4)[C@@H](O)[C@H]3O)c2n1` [Cpd 12, (1R,2S,3R,5R)-3-(7-phenethylamino-5-propylsulfanyl-[1,2,3]triazolo[4,5-d]pyrimidin-3-yl)-5-(1H-tetrazol-5-yl)-cyclopentane-1,2-diol], for which the IC50 (as a rule, the point on the concentration scale where inhibition reaches its midpoint) in the assay with platelets is 0.292 µM; at ADP P2Y12 receptor, 0.416 µM; on P2Y12 receptor, 0.73 µM.
`CCCSc1nc(N[C@H]2C[C@@H]2c2ccccc2)c2nnn([C@@H]3C[C@H](c4nnn[nH]4)[C@@H](O)[C@H]3O)c2n1` [Cpd 23, (1R,2S,3R,5R)-3-{7-[(1S,2R)-2-phenyl-cyclopropylamino]-5-propylsulfanyl-[1,2,3]triazolo[4,5-d]pyrimidin-3-yl}-5-(1H-tetrazol-5-yl)-cyclopentane-1,2-diol]: the figures for the IC50 with platelets, on ADP P2Y12 receptor and on P2Y12 receptor were 0.04 µM, 0.264 µM and 0.061 µM, respectively.
For `CCCCNc1nc(SCCC)nc2c1nnn2[C@@H]1C[C@H](c2nnn[nH]2)[C@@H](O)[C@H]1O` [Cpd 2, (1R,2S,3R,5R)-3-(7-butylamino-5-propylsulfanyl-[1,2,3]triazolo[4,5-d]pyrimidin-3-yl)-5-(1H-tetrazol-5-yl)-cyclopentane-1,2-diol], in that order: 0.315 µM, 0.045 µM and 0.0137 µM.
The matching figures for `CCCSc1nc(N[C@@H]2C[C@H]2c2ccccc2)c2nnn([C@@H]3C[C@H](c4nnn[nH]4)[C@@H](O)[C@H]3O)c2n1` (mixture of isomers) [Cpd 1, (1R,2S,3R,5R)-3-{7-[(1RS,2SR)-2-phenyl-cyclopropylamino]-5-propylsulfanyl-[1,2,3]triazolo[4,5-d]pyrimidin-3-yl}-5-(1H-tetrazol-5-yl)-cyclopentane-1,2-diol]: 0.037 µM, 0.037 µM and 0.0043 µM.
On to `CCCSc1nc(NCC(F)(F)F)c2nnn([C@@H]3C[C@H](c4nnn[nH]4)[C@@H](O)[C@H]3O)c2n1` [Cpd 8, (1R,2S,3R,5R)-3-[5-propylsulfanyl-7-(2,2,2-trifluoro-ethylamino)-[1,2,3]triazolo[4,5-d]pyrimidin-3-yl]-5-(1H-tetrazol-5-yl)-cyclopentane-1,2-diol], for which the IC50 in the assay with platelets was found to be 1.21 µM; at ADP P2Y12 receptor it was 3.12 µM; on P2Y12 receptor it was 0.665 µM.
The matching figures for `CCCSc1nc(NC[C@@H](C)c2ccccc2)c2nnn([C@@H]3C[C@H](c4nnc(C)[nH]4)[C@@H](O)[C@H]3O)c2n1` [Cpd 16, (1S,2R,3R,5R)-3-(5-methyl-4H-[1,2,4]triazol-3-yl)-5-{7-[(2S)-2-phenylpropylamino]-5-propylsulfanyl-[1,2,3]triazolo[4,5-d]pyrimidin-3-yl}-cyclopentane-1,2-diol]: greater than 30 µM, greater than 30 µM and 3.88 µM.
For `CCCSc1nc(N[C@@H]2C[C@H]2c2ccccc2)c2nnn([C@@H]3C[C@H](c4nnc[nH]4)[C@@H](O)[C@H]3O)c2n1` (mixture of isomers) [Cpd 21, (1R,2S,3R,5R)-3-{7-[(1RS,2SR)-2-phenyl-cyclopropylamino]-5-propylsulfanyl-[1,2,3]triazolo[4,5-d]pyrimidin-3-yl}-5-(4H-[1,2,4]triazol-3-yl)-cyclopentane-1,2-diol], in that order: 0.046 µM, 0.155 µM and 0.0659 µM.
For `CCCSc1nc(N[C@@H]2C[C@H]2c2ccccc2)c2nnn([C@@H]3C[C@H](c4nnn[nH]4)[C@@H](O)[C@H]3O)c2n1` [Cpd 22, (1R,2S,3R,5R)-3-{7-[(1R,2S)-2-phenyl-cyclopropylamino]-5-propylsulfanyl-[1,2,3]triazolo[4,5-d]pyrimidin-3-yl}-5-(1H-tetrazol-5-yl)-cyclopentane-1,2-diol], in that order: 0.002 µM, 0.024 µM and 0.002 µM.
On to `CCCSc1nc(N[C@@H]2C[C@H]2c2ccccc2)c2nnn([C@@H]3C[C@H](Cn4nccn4)[C@@H](O)[C@H]3O)c2n1` (mixture of isomers) [Cpd 6, (1R,2S,3R,5R)-3-{7-[(1RS,2SR)-2-phenyl-cyclopropylamino]-5-propylsulfanyl-[1,2,3]triazolo[4,5-d]pyrimidin-3-yl}-5-[1,2,3]triazol-2-ylmethyl-cyclopentane-1,2-diol], for which the half-maximal inhibitory concentration (IC50) with platelets was determined as 0.954 µM; on ADP P2Y12 receptor, 0.98 µM; on P2Y12 receptor, 0.437 µM.
The matching figures for `CCCSc1nc(N[C@@H]2C[C@H]2c2ccccc2)c2nnn([C@@H]3C[C@H](c4nnc(C)[nH]4)[C@@H](O)[C@H]3O)c2n1` (mixture of isomers) [Cpd 14, (1S,2R,3R,5R)-3-(5-methyl-4H-[1,2,4]triazol-3-yl)-5-{7-[(1RS,2SR)-2-phenyl-cyclopropylamino]-5-propylsulfanyl-[1,2,3]triazolo[4,5-d]pyrimidin-3-yl}-cyclopentane-1,2-diol]: 0.064 µM, 0.265 µM and 0.735 µM.
The matching figures for `CCCSc1nc(NCC2CC2)c2nnn([C@@H]3C[C@H](c4nnn[nH]4)[C@@H](O)[C@H]3O)c2n1` [Cpd 10, (1R,2S,3R,5R)-3-[7-(cyclopropylmethyl-amino)-5-propylsulfanyl-[1,2,3]triazolo[4,5-d]pyrimidin-3-yl]-5-(1H-tetrazol-5-yl)-cyclopentane-1,2-diol]: 1.54 µM, 0.542 µM and 0.139 µM.
